Laboratory results as given in PubChem BioAssay AID248 (DTP/NCI, 2004).
“And” between values parts separate entries of the source, which are not always exact repeats. Equal entries are not always repeated. Inconclusive results and toxic doses are left out. No stated cut-off is given here; in the data, active means T/C of 150% or more; inactive means T/C below 125%.

System: L1210 leukemia ip in BDF1 mice, survival T/C
Assay: NCI In Vivo Anticancer Drug Screen. Data for tumor model L1210 Leukemia (intraperitoneal) in B6D2F1 (BDF1) mice
Details: endpoint: mean survival time, higher = longer survival
Outline: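 Each compound was tested against a transplantable tumor grown in mice. The endpoint was survival, with treated animals benchmarked against vehicle controls as a simple ratio.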

[1] = dose: 100.0 mg/kg/injection, schedule: Q01DX001 (ip), vehicle: carboxymethylcellulose (CMC)
[2] = dose: 100.0 mg/kg/injection, schedule: Q01DX001 (ip), vehicle: saline
[3] = dose: 200.0 mg/kg/injection, schedule: Q01DX001 (ip), vehicle: carboxymethylcellulose (CMC)
[4] = dose: 400.0 mg/kg/injection, schedule: Q01DX001 (ip), vehicle: carboxymethylcellulose (CMC)
[5] = dose: 100.0 mg/kg/injection, schedule: Q04DX002 (ip), vehicle: Klucel (hydroxypropylcellulose) (HPC)
[6] = dose: 200.0 mg/kg/injection, schedule: Q04DX002 (ip), vehicle: Klucel (hydroxypropylcellulose) (HPC)
[7] = dose: 400.0 mg/kg/injection, schedule: Q04DX002 (ip), vehicle: Klucel (hydroxypropylcellulose) (HPC)
[8] = dose: 200.0 mg/kg/injection, schedule: Q01DX001 (ip), vehicle: saline
[9] = dose: 400.0 mg/kg/injection, schedule: Q01DX001 (ip), vehicle: saline
[10] = dose: 100.0 mg/kg/injection, schedule: Q04DX003 (ip), vehicle: saline
[11] = dose: 200.0 mg/kg/injection, schedule: Q04DX003 (ip), vehicle: saline

Measured: T/C

COc1cc([C@@H]2c3cc4c(cc3[C@H](O)[C@H]3COC(=O)[C@@H]23)OCO4)cc(OC)c1OC
inactive: dose: 6.0 mg/kg/injection, schedule: Q01DX009 (ip), vehicle: Klucel (hydroxypropylcellulose) (HPC) 88 % of control | dose: 6.25 mg/kg/injection, schedule: Q01DX009 (ip), vehicle: saline 105 % of control | dose: 7.0 mg/kg/injection, schedule: Q01DX Z (ip), vehicle: methylcellulose (MC) 100 % of control | dose: 11.0 mg/kg/injection, schedule: Q01DX Z (ip), vehicle: methylcellulose (MC) 112 % of control | dose: 12.0 mg/kg/injection, schedule: Q01DX009 (ip), vehicle: Klucel (hydroxypropylcellulose) (HPC) 95 % of control | dose: 12.5 mg/kg/injection, schedule: Q01DX009 (ip), vehicle: saline 107 % of control | dose: 15.0 mg/kg/injection, schedule: Q01DX Z (ip), vehicle: methylcellulose (MC) 116 % of control | dose: 15.0 mg/kg/injection, schedule: Q04DX003 (ip), vehicle: Klucel (hydroxypropylcellulose) (HPC) 107 % of control | dose: 16.0 mg/kg/injection, schedule: Q01DX Z (ip), vehicle: methylcellulose (MC) 120 % of control | dose: 24.0 mg/kg/injection, schedule: Q01DX009 (ip), vehicle: Klucel (hydroxypropylcellulose) (HPC) 101 % of control | dose: 24.0 mg/kg/injection, schedule: Q01DX Z (ip), vehicle: methylcellulose (MC) 88 % of control | dose: 25.0 mg/kg/injection, schedule: Q01DX009 (ip), vehicle: saline 113 % of control | dose: 30.0 mg/kg/injection, schedule: Q01DX Z (ip), vehicle: methylcellulose (MC) 101 % of control | dose: 30.0 mg/kg/injection, schedule: Q04DX003 (ip), vehicle: Klucel (hydroxypropylcellulose) (HPC) 96 % of control | dose: 37.5 mg/kg/injection, schedule: Q04DX003 (ip), vehicle: Klucel (hydroxypropylcellulose) (HPC) 97 % of control | dose: 45.0 mg/kg/injection, schedule: Q01DX001 (ip), vehicle: saline 94 % of control and 102 % of control | dose: 48.0 mg/kg/injection, schedule: Q01DX009 (ip), vehicle: Klucel (hydroxypropylcellulose) (HPC) 120 % of control | dose: 50.0 mg/kg/injection, schedule: Q01DX001 (ip), vehicle: carboxymethylcellulose (CMC) 107 % of control | dose: 60.0 mg/kg/injection, schedule: Q04DX003 (ip), vehicle: Klucel (hydroxypropylcellulose) (HPC) 100 % of control | dose: 65.0 mg/kg/injection, schedule: Q01DX001 (ip), vehicle: saline 96 % of control and 124 % of control | dose: 75.0 mg/kg/injection, schedule: Q01DX009 (ip), vehicle: saline 92 % of control | dose: 75.0 mg/kg/injection, schedule: Q04DX003 (ip), vehicle: Klucel (hydroxypropylcellulose) (HPC) 114 % of control | [1] 105 % of control | [2] 96 % of control | dose: 120.0 mg/kg/injection, schedule: Q04DX003 (ip), vehicle: Klucel (hydroxypropylcellulose) (HPC) 104 % of control | dose: 150.0 mg/kg/injection, schedule: Q01DX001 (ip), vehicle: saline 93 % of control and 107 % of control | dose: 150.0 mg/kg/injection, schedule: Q04DX003 (ip), vehicle: Klucel (hydroxypropylcellulose) (HPC) 111 % of control | [3] 110 % of control | dose: 240.0 mg/kg/injection, schedule: Q04DX003 (ip), vehicle: Klucel (hydroxypropylcellulose) (HPC) 91 % of control | dose: 300.0 mg/kg/injection, schedule: Q04DX003 (ip), vehicle: Klucel (hydroxypropylcellulose) (HPC) 100 % of control | [4] 102 % of control

O=C(NCCN1C(=O)C2C3CCC(O3)C2C1=O)Nc1ccc([N+](=O)[O-])cc1[N+](=O)[O-] (stereo not drawn)
inactive: [5] 108 % of control | [6] 101 % of control | [7] 108 % of control

O=C1C=CC(=O)N1c1ccc(Cl)cc1 (tested in a mixture with another compound)
inactive: dose: 100.0 mg/kg/injection, schedule: Q04DX003 (ip), vehicle: acetone 94 % of control | dose: 200.0 mg/kg/injection, schedule: Q04DX003 (ip), vehicle: acetone 103 % of control | dose: 400.0 mg/kg/injection, schedule: Q04DX003 (ip), vehicle: acetone 87 % of control

O=N[O-].O=N[O-].[Co].[NH-]CC[N-]CCO.[NH-]CC[N-]CCO
inactive: dose: 25.0 mg/kg/injection, schedule: Q01DX009 (ip), vehicle: water 109 % of control and 122 % of control | dose: 25.0 mg/kg/injection, schedule: Q04DX003 (ip), vehicle: water 99 % of control | dose: 50.0 mg/kg/injection, schedule: Q01DX009 (ip), vehicle: water 103 % of control and 109 % of control | dose: 50.0 mg/kg/injection, schedule: Q04DX003 (ip), vehicle: water 100 % of control | dose: 100.0 mg/kg/injection, schedule: Q01DX009 (ip), vehicle: water 120 % of control and 89 % of control | dose: 100.0 mg/kg/injection, schedule: Q04DX003 (ip), vehicle: water 97 % of control and 100 % of control

CCOC(=O)c1cc(OC)c[nH]1
inactive: dose: 50.0 mg/kg/injection, schedule: Q01DX001 (ip), vehicle: saline 100 % of control | [2] 94 % of control | [8] 88 % of control | [9] 105 % of control

C=CCSC(=S)OCC
inactive: dose: 25.0 mg/kg/injection, schedule: Q01DX009 (ip), vehicle: saline with Tween-80 88 % of control | dose: 50.0 mg/kg/injection, schedule: Q01DX009 (ip), vehicle: saline with Tween-80 104 % of control | dose: 100.0 mg/kg/injection, schedule: Q01DX009 (ip), vehicle: saline with Tween-80 109 % of control

COC(=O)OCCOC(=O)OC
inactive: dose: 100.0 mg/kg/injection, schedule: Q01DX009 (ip), vehicle: saline 105 % of control | [10] 100 % of control | dose: 200.0 mg/kg/injection, schedule: Q01DX009 (ip), vehicle: saline 101 % of control | [11] 102 % of control | dose: 400.0 mg/kg/injection, schedule: Q01DX009 (ip), vehicle: saline 100 % of control | dose: 400.0 mg/kg/injection, schedule: Q04DX003 (ip), vehicle: saline 103 % of control

NNc1nnc(Cl)cc1N
inactive: dose: 25.0 mg/kg/injection, schedule: Q04DX003 (ip), vehicle: saline with Tween-80 102 % of control | dose: 50.0 mg/kg/injection, schedule: Q04DX003 (ip), vehicle: saline with Tween-80 104 % of control | dose: 100.0 mg/kg/injection, schedule: Q04DX003 (ip), vehicle: saline with Tween-80 113 % of control

CCC(CCNC(=O)c1ccccc1)(CCNC(=O)c1ccccc1)[N+](=O)[O-]
inactive: [2] 95 % of control | [8] 106 % of control | [9] 92 % of control

COC(=O)C1ON(C(=O)c2ccccc2)C(C)C(O)C1OC=O (stereo not drawn)
inactive: [5] 95 % of control | [6] 95 % of control | [7] 103 % of control

COC(=O)c1cc(=O)n(C)c2ccc(OC)cc12
inactive: dose: 100.0 mg/kg/injection, schedule: Q01DX001 (ip), vehicle: saline with Tween-80 101 % of control | dose: 200.0 mg/kg/injection, schedule: Q01DX001 (ip), vehicle: saline with Tween-80 103 % of control | dose: 400.0 mg/kg/injection, schedule: Q01DX001 (ip), vehicle: saline with Tween-80 109 % of control

CCOc1ccc2cc(Br)ccc2c1
inactive: dose: 50.0 mg/kg/injection, schedule: Q01DX001 (ip), vehicle: Klucel (hydroxypropylcellulose) (HPC) 101 % of control | dose: 100.0 mg/kg/injection, schedule: Q01DX001 (ip), vehicle: Klucel (hydroxypropylcellulose) (HPC) 106 % of control | dose: 200.0 mg/kg/injection, schedule: Q01DX001 (ip), vehicle: Klucel (hydroxypropylcellulose) (HPC) 97 % of control

NNc1c(Cl)c(F)c(Cl)c(F)c1Cl
inactive: [1] 104 % of control | [3] 97 % of control | [4] 104 % of control

Cn1cnc(=O)c2ccccc21
inactive: [10] 88 % of control | [11] 100 % of control

O=C(/C(=C/c1ccc(Cl)cc1)c1ccccc1)c1ccc(O)cc1
inactive: [8] 92 % of control | [9] 86 % of control

Cc1nc(-c2ccc(N=Cc3ccc(N(CCOS(C)(=O)=O)CCOS(C)(=O)=O)cc3)cc2)cs1
inactive: dose: 2.5 mg/kg/injection, schedule: Q04DX003 (ip), vehicle: Klucel (hydroxypropylcellulose) (HPC) 106 % of control | dose: 5.0 mg/kg/injection, schedule: Q04DX003 (ip), vehicle: Klucel (hydroxypropylcellulose) (HPC) 113 % of control | dose: 10.0 mg/kg/injection, schedule: Q04DX003 (ip), vehicle: Klucel (hydroxypropylcellulose) (HPC) 120 % of control | dose: 100.0 mg/kg/injection, schedule: Q04DX003 (ip), vehicle: Klucel (hydroxypropylcellulose) (HPC) 118 % of control | dose: 200.0 mg/kg/injection, schedule: Q04DX003 (ip), vehicle: Klucel (hydroxypropylcellulose) (HPC) 88 % of control
